Source: patent publication US10174033B2, “N6-substituted adenosine derivatives and N6-substituted adenine derivatives and uses thereof” (INSTITUTE OF MATERIA MEDICA, CHINESE ACADEMY OF MEDICAL …, priority 2009, dated 2019)

Columns and labels:
mice = assay: Sub-threshold hypnotic dose sodium pentobarbital induced sleeping test; assay type: in vivo; details: intraperitoneal, 30 min before sub-threshold sodium pentobarbital (22 mg/kg ip)
Procedure: N^6-substituted adenosine derivatives and/or N^6-substituted adenine derivatives potentiated sodium pentobarbital-induced sleep in mice
Name of Experiment: Sub-threshold hypnotic dose sodium pentobarbital induced sleeping test
Method of Experiment: Mice (n=7-10) were pretreated with test compound or vehicle, after 30 min, a maximal sub-threshold hypnotic dose of sodium pentobarbital (22 mg/kg) was given intraperitoneally (ip). (On some condition, the sub-threshold dosage of sodium pentobarbital should be optimized to the maximum dose, at which the rate of sleep onset of vehicle group is less than 10%). […] Following sodium pentobarbital injection, each mouse was observed 15 min for onset of sleep. The percentage of sleep onset was calculated as: (number of animals falling asleep/total number of animals)×100%.

male ICR-mice = assay: Potentiation of sodium pentobarbital sleeping time test; assay type: in vivo
Procedure: Effects of N^6-substituted adenosine derivatives and/or N^6-substituted adenine derivatives on sodium pentobarbital-induced sleeping time in mice.
Name of Experiment: Potentiation of sodium pentobarbital sleeping time test.
Method of Experiment: Groups of 8-10 male ICR-mice with an average weight of 18-22 g were used. They were dosed orally or i.p. with the test compound or the vehicle. Thirty min after i.p. injection or 60 min after oral dosing 38 mg/kg sodium pentobarbital were injected intravenously. The latency and duration of sleep (loss of righting reflex) were recorded. The percentage of prolongation of sleeping time was calculated as: [(sleeping time of experimental group)−(sleeping time of control group)]/(sleeping time of control group)×100%.

[1] = intraperitoneal, 5 mg/kg, 38 mg/kg sodium pentobarbital 30 min later
[2] = oral, 4 mg/kg, 38 mg/kg sodium pentobarbital 60 min later
[3] = intraperitoneal, 1 mg/kg, 38 mg/kg sodium pentobarbital 30 min later
[4] = oral, 5 mg/kg, 38 mg/kg sodium pentobarbital 60 min later

Compound | Sleep rate (%) (mice; 5 mg/kg) | Sleep prolonging rate (%) (male ICR-mice; [1]) | Sleep prolonging rate (%) (male ICR-mice; [4]) | also measured
OC[C@H]1O[C@@H](n2cnc3c(N4CCN(c5ccccc5)CC4)ncnc32)C(O)C1O (stereo partly drawn) [Example 16] | 50 | 34 |  | 
OC[C@H]1O[C@@H](n2cnc3c(NCc4ccc(O)c(O)c4)ncnc32)[C@H](O)[C@@H]1O [Example 22, N^6-(3,4-dihydroxybenzyl)-adenosine] | 100 | 32 |  | Sleep rate (%) (mice; 1 mg/kg): 87%; Sleep prolonging rate (%) (male ICR-mice; [2]): 74%
COc1ccc(CCNc2ncnc3c2ncn3[C@@H]2O[C@H](CO)[C@@H](O)[C@H]2O)cc1O [Example 40, N^6-[(3-hydroxy-4-methoxyphenyl)-ethyl]-adenosine] |  |  |  | Sleep rate (%) (mice; 1 mg/kg): 50%; Sleep prolonging rate (%) (male ICR-mice; [3]): 1%
CC(Nc1ncnc2c1ncn2[C@@H]1O[C@H](CO)[C@@H](O)[C@H]1O)c1ccccc1 (mixture of isomers) [Example 45, N^6-[(±)-1-(phenyl)-ethyl]-adenosine] | 100 | 254 | 201 | 
COc1cc(CNc2ncnc3c2ncn3[C@@H]2O[C@H](CO)C(O)C2O)cc(OC)c1O (stereo partly drawn) [Example 36, N^6-(4-hydroxy-3,5-dimethxoybenzyl)-adenosine] | 86 | 336 | 121 | 
O=C(O)[C@@H](Cc1ccccc1)Nc1ncnc2c1ncn2[C@@H]1O[C@H](CO)C(O)C1O (stereo partly drawn) [Example 103, N-(6-adenosine)-(D)-phenylalanine] | 17 | 19 |  | 
O=C(O)[C@@H](Cc1ccc(O)cc1)Nc1ncnc2c1ncn2[C@@H]1O[C@H](CO)C(O)C1O (stereo partly drawn) [Example 106, N-(6-adenosine)-(D)-tyrosine] | 17 | 82 |  | 
COc1cc(CNc2ncnc3c2ncn3[C@@H]2O[C@H](CO)[C@@H](O)[C@H]2O)ccc1O [Example 23, N^6-(3-methoxy-4-hydroxybenzyl)-adenosine] |  |  |  | Sleep rate (%) (mice; 1 mg/kg): 100%; Sleep prolonging rate (%) (male ICR-mice; [2]): 87%
OC[C@H]1O[C@@H](n2cnc3c(NCCc4c[nH]cn4)ncnc32)[C@H](O)[C@@H]1O [Example 43, N^6-[(1H-imidazole-4-yl)-ethyl]-adenosine] |  |  |  | Sleep rate (%) (mice; 1 mg/kg): 88%; Sleep prolonging rate (%) (male ICR-mice; [3]): 43%
O=C(O)[C@@H](Cc1c[nH]c2ccccc12)Nc1ncnc2c1ncn2[C@@H]1O[C@H](CO)C(O)C1O (stereo partly drawn) [Example 111, N-(6-adenosine)-(L)-tryptophan] | 14 | 69 |  | 
O=C(O)C(Cc1c[nH]c2ccc(O)cc12)Nc1ncnc2c1ncn2[C@@H]1O[C@H](CO)C(O)C1O (stereo partly drawn) [Example 115, N-(6-adenosine)-5-hydroxy tryptophan] | 17 | 60 |  | 
OC[C@H]1O[C@@H](n2cnc3c(NCc4ccc5c(c4)OCO5)ncnc32)[C@H](O)[C@@H]1O [Example 31, N^6-(3,4-methylenedioxybenzyl)-adenosine] | 100 | 175 |  | 
Cc1ccc(-c2nc3ccc(C)cn3c2CC(=O)N(C)C)cc1 [zolpidem, reference compound] |  |  |  | Sleep rate (%) (mice; 2 mg/kg): 75%
OC[C@H]1O[C@@H](n2cnc3c(NCc4ccco4)ncnc32)[C@H](O)[C@@H]1O [Example 17, N^6-(2-furanylmethyl)-adenosine] | 71 |  |  | 
COc1ccc(CNc2ncnc3c2ncn3[C@@H]2O[C@H](CO)[C@@H](O)[C@H]2O)cc1O [Example 29, N^6-(4-methoxy-3-hydroxybenzyl)-adenosine] |  |  |  | Sleep rate (%) (mice; 1 mg/kg): 86%
O=[N+]([O-])c1ccccc1CNc1ncnc2c1ncn2[C@@H]1O[C@H](CO)[C@@H](O)[C@H]1O [Example 9, N^6-(o-nitrobenzyl)-adenosine] |  |  |  | Sleep rate (%) (mice; 1 mg/kg): 100%

Compound | Sleep rate (%) (mice; 5 mg/kg) | Sleep prolonging rate (%) (male ICR-mice; [1]) | Sleep prolonging rate (%) (male ICR-mice; [4]) | also measured
COc1ccc(CNc2ncnc3c2ncn3[C@@H]2O[C@H](CO)[C@@H](O)[C@H]2O)cc1OC [Example 30, N^6-(3,4-dimethoxybenzyl)-adenosine] |  |  |  | Sleep rate (%) (mice; 1 mg/kg): 100%
CSCC[C@@H](CO)Nc1ncnc2c1ncn2[C@@H]1O[C@H](CO)C(O)C1O (stereo partly drawn) [Example 132, N^6-[(L)-2-(1-hydroxy-4-methylthioyl)-butyl]-adenosine] |  |  | 53 | 
N^6-[(±)-1-(3,4,5-trimethoxyphenyl)-ethyl]-adenosine-5′-decanoic ether [Example 56] |  |  | 2 | 
OC[C@H]1O[C@@H](n2cnc3c(NCc4cccs4)ncnc32)[C@H](O)[C@@H]1O [Example 19, N^6-(2-thiopheneylmethyl)-adenosine] |  | 12 |  | 
OC[C@H]1O[C@@H](n2cnc3c(N[C@H](c4ccccc4)[C@@H](O)c4ccccc4)ncnc32)C(O)C1O (stereo partly drawn) [Example 99, N^6-{(1S,2R)-[2-hydroxy-(1,2-diphenyl)]-ethyl}-adenosine] |  |  | 46 | 
COc1cc(C(C)Nc2ncnc3c2ncn3[C@@H]2O[C@H](CO)[C@@H](O)[C@H]2O)ccc1O (mixture of isomers) [Example 50, N^6-[(±)-1-(3-methoxy-4-hydroxy-phenyl)-ethyl]-adenosine] |  |  | 119 | 
CN(c1ncnc2c1ncn2[C@@H]1O[C@H](CO)[C@@H](O)[C@H]1O)C1CCCCC1 [Example 141, N^6-methyl-N^6-cyclohexyl-adenosine] |  |  | 55 | 
CCCC(=O)OCC1OC(n2cnc3c(NCc4ccc(OC(=O)CCC)c(OC)c4)ncnc32)C2OC(C)(C)OC12 (stereo not drawn) [N^6-(3-methoxy-4-butanoyloxy-benzyl)-2′,3′-O-isopropylidene-adenosine-5′-butyrate] |  |  | 21 | 
CCOC(=O)[C@H](Cc1c[nH]c2ccccc12)Nc1ncnc2c1ncn2[C@@H]1O[C@H](CO)C(O)C1O (stereo partly drawn) [Example 113, N-(6-adenosine)-(L)-tryptophan ethyl ester] |  |  | 7 | 
OC[C@H]1O[C@@H](n2cnc3c(NC(Cc4ccccc4)c4ccccc4)ncnc32)C(O)C1O (mixture of isomers) [Example 94, N^6-[(±)-1-(1,2-diphenyl)-ethyl]-adenosine] |  |  | 36 | 
CCOC(=O)[C@@H](Cc1ccc(O)cc1)Nc1ncnc2c1ncn2[C@@H]1O[C@H](CO)C(O)C1O (stereo partly drawn) [Example 108, N-(6-adenosine)-(D)-tyrosine ethyl ester] |  |  | 32 | 
COc1ccccc1CNc1ncnc2c1ncn2[C@@H]1O[C@H](CO)[C@@H](O)[C@H]1O [N^6-(o-methoxybenzyl)-adenosine] |  |  |  | Sleep rate (%) (mice; 1 mg/kg): 100%
COc1cc(CNc2ncnc3nc[nH]c23)ccc1O [N^6-(3-methoxy-4-hydroxybenzyl)-adenine] |  |  |  | Sleep rate (%) (mice; 1 mg/kg): 38%
COc1cccc([C@@H](C)Nc2ncnc3c2ncn3[C@@H]2O[C@H](CO)[C@@H](O)[C@H]2O)c1 [Example 65, N^6-[(R)-1-(3-methoxyphenyl)-ethyl]-adenosine] |  |  | 160 | 
COc1ccc2c(c1)CCCC2Nc1ncnc2c1ncn2[C@@H]1O[C@H](CO)[C@@H](O)[C@H]1O (mixture of isomers) [Example 96, N^6-[(±)-(6-methoxy-1,2,3,4-tetrahydro-naphthalene-1-yl)]-adenosine] |  |  | 170 | 
CC(C(O)c1ccccc1)N(C)c1ncnc2c1ncn2[C@@H]1O[C@H](CO)C(O)C1O (mixture of isomers) [Example 137, N^6-methyl-N^6-[(±)-2-(1-hydroxy-1-phenyl)-propyl]-adenosine] |  |  | 92 | 
